One assay deals with T1, murine HDAC6 (Mus musculus, UniProt Q9Z2V5).
T1 construct: made in house; host or cells: 293T cells (transient transfection, anti-FLAG immunoprecipitation, FLAG peptide elution)
T1 sequence (Q9Z2V5 1-1149): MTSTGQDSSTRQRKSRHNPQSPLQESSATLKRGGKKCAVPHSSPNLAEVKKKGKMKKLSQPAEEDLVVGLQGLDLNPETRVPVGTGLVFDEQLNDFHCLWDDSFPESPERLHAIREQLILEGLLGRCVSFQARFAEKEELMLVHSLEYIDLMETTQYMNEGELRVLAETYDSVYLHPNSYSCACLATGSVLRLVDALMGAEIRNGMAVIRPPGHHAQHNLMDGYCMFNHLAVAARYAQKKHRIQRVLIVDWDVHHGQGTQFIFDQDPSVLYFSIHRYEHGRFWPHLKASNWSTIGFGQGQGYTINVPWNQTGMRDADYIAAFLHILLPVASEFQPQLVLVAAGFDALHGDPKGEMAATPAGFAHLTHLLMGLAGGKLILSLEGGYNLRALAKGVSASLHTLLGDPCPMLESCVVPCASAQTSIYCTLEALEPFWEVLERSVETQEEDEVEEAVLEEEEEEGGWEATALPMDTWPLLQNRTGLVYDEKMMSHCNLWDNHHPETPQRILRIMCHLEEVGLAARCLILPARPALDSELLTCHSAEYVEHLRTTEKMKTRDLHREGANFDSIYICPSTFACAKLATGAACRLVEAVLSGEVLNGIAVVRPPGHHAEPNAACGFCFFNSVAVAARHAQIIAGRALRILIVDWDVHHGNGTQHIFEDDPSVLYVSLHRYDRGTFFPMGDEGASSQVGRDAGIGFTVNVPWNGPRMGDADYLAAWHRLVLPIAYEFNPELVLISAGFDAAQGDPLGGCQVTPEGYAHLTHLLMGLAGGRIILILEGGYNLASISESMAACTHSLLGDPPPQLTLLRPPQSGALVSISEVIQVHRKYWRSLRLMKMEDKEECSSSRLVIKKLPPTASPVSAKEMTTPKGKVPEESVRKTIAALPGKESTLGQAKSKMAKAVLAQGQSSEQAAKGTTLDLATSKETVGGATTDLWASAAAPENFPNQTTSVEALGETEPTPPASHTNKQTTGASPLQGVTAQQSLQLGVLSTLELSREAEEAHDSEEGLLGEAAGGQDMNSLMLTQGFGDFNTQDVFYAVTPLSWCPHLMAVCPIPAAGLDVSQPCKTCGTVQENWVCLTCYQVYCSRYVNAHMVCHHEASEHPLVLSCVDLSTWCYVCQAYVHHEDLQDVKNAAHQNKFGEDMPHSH
Briefly: HDAC-inhibiting activity, coumarin-labeled acetylated histone peptide assay. In kind it is biochemical. Conditions: murine HDAC6 from transfected 293T cells; 37° C., 30 minutes. On the procedure: (§1) In carrying out HDAC-inhibiting activity measurements, HDAC solutions were prepared in the following manner. In each 100-mm dish, there were sowed 1×10^7 293T cells and, after 24 hours, they were transfected with a vector (5 μg) expressing human HDAC1 or HDAC4 or murine HDAC6 using the LipofectAmine 2000 reagent (Invitrogen). The human HDAC1 expression vector used was pcDNA3-HD1 (Yang, W. M., Yao, Y. L., Sun, J. M., Davie, J. R. & Seto, E. (1997) J. Biol. Chem. 272, 28001-28007), the human HDAC4 expression vector used was pcDNA3-HD4 (Fischle, W., Emiliani, S., Hendzel, M. J., Nagase, T., Nomura, N., Voelter, W. & Verdin, E. (1999) J. Biol. Chem. 274, 11713-11720), and the murine HDAC6 expression vector used was pcDNA3-mHDA2/HDAC6 (Verdel, A. & Khochbin, S. (1999) J. Biol. Chem. 274, 2440-2445).
(§2) After 24 hours of incubation, cells were recovered, washed with PBS, suspended in lysis buffer (50 mM Tris-HCl (pH 7.5), 120 mM NaCl, 5 mM EDTA, 0.5% Nonidet P-40), and sonicated. The supernatant was collected by centrifugation and then deprived of nonspecific proteins using Protein A/G plus agarose beads (Santa Cruz Biotechnologies, Inc.). Thereafter, anti-FLAG M2 antibody (Sigma-Aldrich Inc.) was added, and the reaction was allowed to proceed at 4° C. for 2 hours.
(§3) To this were added agarose beads, the reaction was allowed to proceed at 4° C. for 3 hours, and the agarose beads were washed three times with lysis buffer and then once with HD buffer (20 mM Tris-HCl (pH 8.0), 150 mM NaCl, 10% glycerol). The protein bound to the agarose beads was recovered by 1 hour of incubation with FLAG peptide (40 μg) (Sigma-Aldrich Inc.) in HD buffer (200 μl) at 4° C., and the liquid recovered was used, as a reactant solution, in the HDAC-inhibiting activity measurement described below.
(§4) HDAC-inhibiting activity evaluation in each in vitro system was made as follows. Each test compound was dissolved in DMSO, a stock solution with a concentration of 10 mM was thus prepared and this was used as an inhibitor stock solution. The assay was carried out by incubating the HDAC solution and a coumarin-labeled acetylated histone peptide solution in the presence of the test compound at 37° C. for 30 minutes (reaction volume 20 μl). To the reaction mixture was added 30 μl of trypsin, and the aminomethylcoumarin released by the enzymatic reaction was assayed using a fluorescent plate reader. In a negative control assay, no inhibitor was added to the reaction system and the same procedure was carried out.

The next assay has as its target T2, human HDAC1 (Homo sapiens, UniProt Q13547).
T2 construct: made in house; host or cells: 293T cells (transient transfection, anti-FLAG immunoprecipitation, FLAG peptide elution)
The description is as above. The following applies: human HDAC1 from transfected 293T cells; 37° C., 30 minutes. In kind it is biochemical. The protocol: as §1, §2, §3, §4

In another assay the target is T3, human HDAC4 (Homo sapiens, UniProt P56524).
T3 construct: made in house; host or cells: 293T cells (transient transfection, anti-FLAG immunoprecipitation, FLAG peptide elution)
T3 sequence (P56524 whole entry): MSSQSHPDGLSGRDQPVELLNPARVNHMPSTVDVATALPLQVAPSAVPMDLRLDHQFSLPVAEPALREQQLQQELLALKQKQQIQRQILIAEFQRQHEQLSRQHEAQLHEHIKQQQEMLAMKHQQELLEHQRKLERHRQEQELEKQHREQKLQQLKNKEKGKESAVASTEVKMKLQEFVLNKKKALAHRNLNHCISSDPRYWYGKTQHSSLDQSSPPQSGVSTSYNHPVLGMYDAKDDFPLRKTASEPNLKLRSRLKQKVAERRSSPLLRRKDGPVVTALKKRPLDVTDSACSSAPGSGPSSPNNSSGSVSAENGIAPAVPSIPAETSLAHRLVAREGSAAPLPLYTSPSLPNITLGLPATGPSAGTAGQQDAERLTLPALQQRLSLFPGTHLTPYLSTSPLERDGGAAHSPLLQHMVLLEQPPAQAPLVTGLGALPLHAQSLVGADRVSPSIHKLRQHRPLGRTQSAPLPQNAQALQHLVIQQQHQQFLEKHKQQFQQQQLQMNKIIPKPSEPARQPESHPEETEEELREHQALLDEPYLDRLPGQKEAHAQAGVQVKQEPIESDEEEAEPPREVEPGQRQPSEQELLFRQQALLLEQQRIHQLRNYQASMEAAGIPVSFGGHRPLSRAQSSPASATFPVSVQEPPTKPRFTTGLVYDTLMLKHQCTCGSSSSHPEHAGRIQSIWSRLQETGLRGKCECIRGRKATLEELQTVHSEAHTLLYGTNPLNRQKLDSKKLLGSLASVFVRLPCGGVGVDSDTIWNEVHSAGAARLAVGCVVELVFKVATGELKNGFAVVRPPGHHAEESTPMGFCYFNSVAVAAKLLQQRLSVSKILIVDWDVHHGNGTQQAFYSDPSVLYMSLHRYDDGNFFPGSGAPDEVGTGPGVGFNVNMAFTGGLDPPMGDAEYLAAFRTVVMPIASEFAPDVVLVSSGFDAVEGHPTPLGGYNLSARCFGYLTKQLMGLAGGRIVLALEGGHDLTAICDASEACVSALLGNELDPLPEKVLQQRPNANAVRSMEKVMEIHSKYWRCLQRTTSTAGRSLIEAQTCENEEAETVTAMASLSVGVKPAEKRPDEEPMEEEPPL
T3 sequence (O15379 whole entry, further chain): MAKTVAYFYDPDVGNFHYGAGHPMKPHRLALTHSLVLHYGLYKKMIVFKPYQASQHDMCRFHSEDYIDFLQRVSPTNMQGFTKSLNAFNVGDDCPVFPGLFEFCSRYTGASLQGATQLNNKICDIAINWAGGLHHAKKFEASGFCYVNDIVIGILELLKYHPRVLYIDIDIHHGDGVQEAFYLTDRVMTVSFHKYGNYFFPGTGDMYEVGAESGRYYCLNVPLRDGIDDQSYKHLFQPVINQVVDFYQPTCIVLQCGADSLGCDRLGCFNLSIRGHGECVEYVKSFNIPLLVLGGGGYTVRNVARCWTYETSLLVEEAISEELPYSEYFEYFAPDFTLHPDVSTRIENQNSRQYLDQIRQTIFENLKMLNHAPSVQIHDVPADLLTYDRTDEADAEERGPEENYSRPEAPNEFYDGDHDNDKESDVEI
The assay is described as above. Type of assay: biochemical. The protocol:
In carrying out HDAC-inhibiting activity measurements, HDAC solutions were prepared in the following manner. […] The human HDAC1 expression vector used was pcDNA3-HD1 (Yang, W. M., Yao, Y. L., Sun, […]. & Seto, E. (1997) J. Biol. Chem. 272, 28001-28007), the human HDAC4 expression vector used was pcDNA3-HD4 ([…]., Nagase, […]. Biol. Chem. 274, 11713-11720), and the murine HDAC6 expression vector used was pcDNA3-mHDA2/HDAC6 ([…]. Biol. Chem. 274, 2440-2445). After 24 hours of incubation, cells were recovered, washed with PBS, suspended in lysis buffer (50 mM Tris-HCl (pH 7.5), 120 mM NaCl, 5 mM EDTA, 0.5% Nonidet P-40), and sonicated. The supernatant was collected by centrifugation and then deprived of nonspecific proteins using Protein A/G plus agarose beads (Santa Cruz Biotechnologies, Inc.). Thereafter, anti-FLAG M2 antibody (Sigma-Aldrich Inc.) was added, and the reaction was allowed to proceed at 4° C. for 2 hours. To this were added agarose beads, the reaction was allowed to proceed at 4° C. for 3 hours, and the agarose beads were washed three times with lysis buffer and then once with HD buffer (20 mM Tris-HCl (pH 8.0), 150 mM NaCl, 10% glycerol). […] HDAC-inhibiting activity evaluation in each in vitro system was made as follows. Each test compound was dissolved in DMSO, a stock solution with a concentration of 10 mM was thus prepared and this was used as an inhibitor stock solution. The assay was carried out by incubating the HDAC solution and a coumarin-labeled acetylated histone peptide solution in the presence of the test compound at 37° C. for 30 minutes (reaction volume 20 μl). To the reaction mixture was added 30 μl of trypsin, and the aminomethylcoumarin released by the enzymatic reaction was assayed using a fluorescent plate reader. In a negative control assay, no inhibitor was added to the reaction system and the same procedure was carried out.

Assay [1] relates to human wild type p21 promoter. Put plainly: p21 promoter assay (luciferase) in MFLL-9 cells. The following applies: 20 hours, concentration giving 1000% luminescence relative to negative control (100%). In kind it is cell-based. On the procedure:
As an HDAC-inhibiting activity in an […] system, the following measurement was carried out using the p21 promoter inducing activity as an index. MFLL-9 cells used in the experiment are cells stably retaining a fusion gene (Dr. B. Vogelstaein) from the human wild type p21 promoter and luciferase gene. They were cultured using phenol red-free DMEM supplemented with 10% FBS in a steam-saturated incubator at 37° C. in the presence of 5% carbon dioxide. These MFLL-9 cells were sowed onto a 96-well microplate at a cell density of 2×10^4 cells/well and, after 24 hours of cultivation in 99 μl, per well, of the medium mentioned above, each test compound solution was added, followed by 20 hours of incubation. […] In a negative control, the same procedure was carried out without adding any inhibitor to the reaction system.
Using Luciferase Assay Reagent (Promega), the intensity of the luminescence due to the product of the enzymatic reaction involving luciferase expressed within cells was measured.

[2] abbreviates: human HDAC4 from transfected 293T cells, 37° C., 30 minutes, read-out: HDAC-inhibiting activity IC50 HDAC4.

Where two headings read alike, the source gives them in different places. Non-standard residues stand in square brackets, D forms with d. Residues, ends and D or L forms follow the SMILES beside them. Ala(5-hexenyl) = C=CCCCCC[C@H](N)C(=O)O; Aib = CC(C)(N)C(=O)O Where only a bound is given, the exact number is not on record here.

As a reminder, the IC50 is the point on the concentration scale where inhibition reaches its midpoint.

T2 sequence (Q13547 whole entry): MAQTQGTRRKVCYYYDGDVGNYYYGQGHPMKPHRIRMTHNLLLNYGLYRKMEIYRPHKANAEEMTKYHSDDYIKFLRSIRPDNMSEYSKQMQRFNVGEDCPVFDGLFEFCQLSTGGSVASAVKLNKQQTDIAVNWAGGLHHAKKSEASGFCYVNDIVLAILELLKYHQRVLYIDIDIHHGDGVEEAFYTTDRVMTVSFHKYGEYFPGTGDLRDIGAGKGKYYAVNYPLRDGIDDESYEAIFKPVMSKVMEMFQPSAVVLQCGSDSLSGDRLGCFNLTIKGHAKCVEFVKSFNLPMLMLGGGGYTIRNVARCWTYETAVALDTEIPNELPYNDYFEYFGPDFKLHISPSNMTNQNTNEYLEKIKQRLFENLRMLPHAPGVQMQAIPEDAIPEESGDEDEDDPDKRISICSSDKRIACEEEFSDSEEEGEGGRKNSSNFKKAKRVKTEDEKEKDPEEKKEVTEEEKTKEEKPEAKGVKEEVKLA

As for `CCOCC(=O)CCCCC[C@@H]1NC(=O)[C@H]2CCCN2C(=O)[C@H](Cc2ccccc2)NC(=O)C(C)(C)NC1=O` [Ky-10, cyclo(-L-Ae9(Emk)-Aib-L-Phe-D-Pro-)], the IC50 turned out to be 8400 nM on murine HDAC6, 21 nM against human HDAC1 and 31 nM on human HDAC4 (setting [2]). In assay [1], the “p21 promoter activity EC1000” value is 0.095 µM.
The like results for `CC1(C)NC(=O)[C@H](CCCCCC(=O)CBr)NC(=O)[C@H]2CCCN2C(=O)[C@H](Cc2ccccc2)NC1=O` [Ky-12, cyclo(-L-Ae9(Bmk)-Aib-L-Phe-D-Pro-)] were, in that order, 620 nM, 62 nM, 60 nM and 0.34 µM.
The like results for `CSCC(=O)CCCCC[C@@H]1NC(=O)[C@H]2CCCN2C(=O)[C@H](Cc2ccccc2)NC(=O)C(C)(C)NC1=O` [Ky-13, cyclo(-L-Ae9(Mtmk)-Aib-L-Phe-D-Pro-)] were, in that order, 40500 nM, 110 nM, 74 nM and 0.13 µM.
For `CN(C)CC(=O)CCCCC[C@@H]1NC(=O)[C@H]2CCCN2C(=O)[C@H](Cc2ccccc2)NC(=O)C(C)(C)NC1=O` [Ky-14, cyclo(-L-Ae9(Dmamk)-Aib-L-Phe-D-Pro-)], the IC50 against murine HDAC6 is greater than 100000 nM; at human HDAC1, 20000 nM; at human HDAC4 (setting [2]) it was 17900 nM. For the same compound, in assay [1], the “p21 promoter activity EC1000” value came to 2.4 µM.
As for `CSCCCCC[C@@H]1NC(=O)[C@H]2CCCN2C(=O)[C@H](Cc2ccccc2)NC(=O)C(C)(C)NC1=O` [Ky-15, cyclo(-L-Am7(methyl)-Aib-L-Phe-D-Pro-)], the IC50 at murine HDAC6, against human HDAC1 and at human HDAC4 (setting [2]) was greater than 100000 nM throughout.
On to `CC1(C)NC(=O)[C@H](CCCCCSCc2ccccn2)NC(=O)[C@H]2CCCN2C(=O)[C@H](Cc2ccccc2)NC1=O` [Ky-16, cyclo(-L-Am7(2-pyridylmethylthio ether)-Aib-L-Phe-D-Pro-)], for which the IC50 at murine HDAC6 worked out at 58 nM; against human HDAC1, 23 nM; at human HDAC4 (setting [2]), 11 nM. The “p21 promoter activity EC1000” value in assay [1] stood at 0.20 µM.
Turning to `C=CCCCCC[C@@H]1NC(=O)[C@H]2CCCN2C(=O)[C@H](Cc2ccccc2)NC(=O)C(C)(C)NC1=O` [Ky-17, cyclo(-L-Ae9-Aib-L-Phe-D-Pro-)] (cyclo([Aib]F[dP][Ala(5-hexenyl)])), the IC50 on murine HDAC6, against human HDAC1 and at human HDAC4 was greater than 100000 nM in each case. Also, the “p21 promoter activity EC1000” value in assay [1] is greater than 250 µM.
As to `CC(=O)SCC(=O)CCCCC[C@@H]1NC(=O)[C@H]2CCCN2C(=O)[C@H](Cc2ccccc2)NC(=O)C(C)(C)NC1=O` [Ky-18, cyclo(-L-Ae9(Actmk)-Aib-L-Phe-D-Pro-)], the IC50 stood at 4300 nM against murine HDAC6, 110 nM on human HDAC1 and 190 nM on human HDAC4 (setting [2]). In addition, the “p21 promoter activity EC1000” value in assay [1] was 0.013 µM.
With `CC1(C)NC(=O)C(CCCCC[S+]([O-])Cc2ccccn2)NC(=O)[C@H]2CCCN2C(=O)[C@H](Cc2ccccc2)NC1=O` (stereo partly drawn) [Ky-25, cyclo(-L-Am7(2-pyridylmethyl,sulfoxide)-Aib-L-Phe-D-Pro-)], the “p21 promoter activity EC1000” value in assay [1] stood at 1.4 µM.
On to `CC1(C)NC(=O)[C@H](CCCSCC(=O)C(F)(F)F)NC(=O)[C@H]2CCCN2C(=O)[C@H](Cc2ccccc2)NC1=O` [Ky-27, cyclo(-L-Am5(1,1,1-trifluoroacetonyl)-Aib-L-Phe-D-Pro-)], for which the IC50 against murine HDAC6, against human HDAC1 and at human HDAC4 (setting [2]) was greater than 100000 nM in each case. Moreover, in assay [1], the “p21 promoter activity EC1000” value was greater than 250 µM.
As to `CC1(C)NC(=O)[C@H](CCCCCSCC(=O)C(F)(F)F)NC(=O)[C@H]2CCCN2C(=O)[C@H](Cc2ccccc2)NC1=O` [Ky-29, cyclo(-L-Am7(1,1,1-trifluoroacetonyl)-Aib-L-Phe-D-Pro-)], the IC50 on human HDAC4 (setting [2]) stood at 360 nM. In addition, in assay [1], the “p21 promoter activity EC1000” value came out at 0.028 µM.
On to `CC(=O)C[S+]([O-])CCCCCC1NC(=O)[C@H]2CCCN2C(=O)[C@H](Cc2ccccc2)NC(=O)C(C)(C)NC1=O` (stereo partly drawn) [Ky-86, cyclo(-L-Am7(acetonyl,sulfoxide)-Aib-L-Phe-D-Pro-)], for which the “p21 promoter activity EC1000” value in assay [1] came to 16.8 µM.

These data come from US8158587B2, “Compound having histone deacetylase-inhibiting activity, and pharmaceutical composition comprising the compound as an active ingredient” (Kyushu Institute of Technology, priority 2006, dated 2012).
